Source: patent publication US20150031643A1, “COMBINATION TREATMENT OF ACUTE MYELOID LEUKEMIA AND MYELODYSPLASTIC SYNDROME II” (Boehringer Ingelheim International GmbH, priority 2013, published 2015)

Test system: human AML cell line MV4;11
Test: Nude mouse xenograft model derived from human AML cell line MV4;11: tumor growth
Type: in vivo, mice
Conditions: treated for 19 days
Procedure: MV4;11 (CRL-9591) cells were obtained from ATCC. According to the Catalogue of Somatic Mutations in Cancer of the Wellcome Trust Sanger Institute, UK, this cell line carries a mutation in the FLT3 gene. Cells were cultured in T175 tissue culture flasks at 37° C. and 5% CO2. The medium used was IMDM supplemented with 10% fetal calf serum, 1% NEAA, 1% sodium pyruvate and 1% glutamine.
To establish subcutaneous tumors, MV4;11 cells were harvested and resuspended in PBS+5% FCS at 5×10^7 cells/ml. 50 μl of the cell suspension containing 2.5×10^6 cells was then injected subcutaneously into the right flank of the mice (1 site per mouse). Growth factor reduced BD Matrigel™ Matrix (BD Biosciences) was added to the cell suspension at a ratio of 1:1 before the injection. When tumors were well established and had reached a tumor volume of ˜120 mm^3, mice were randomly distributed between the treatment and the vehicle control groups 14 days after injecting the cells.
The solution was freshly made up each injection day.
The application solution was prepared on each injection day.
Animals were treated for 19 days.

Nc1ncn([C@@H]2O[C@H](CO)[C@@H](O)[C@H]2O)c(=O)n1 [azacitidine, Azacitidine]
T/C (ratio of median tumor volume of treated vs. control tumors) (Example 1, Azacitidine alone 40 mg/kg once weekly i.v.): 78%
T/C (ratio of median tumor volume of treated vs. control tumors) (Example 2, Azacitidine alone 40 mg/kg once weekly i.v.): 78%

CC[C@@H]1C(=O)N(C)c2cnc(Nc3ccc(C(=O)N[C@H]4CC[C@H](N5CCN(CC6CC6)CC5)CC4)cc3OC)nc2N1C(C)C [Volasertib, N-[trans-4-[4-(cyclopropylmethyl)-1-piperazinyl]cyclohexyl]-4-[[(7R)-7-ethyl-5,6,7,8-tetrahydro-5-methyl-8-(1-methylethyl)-6-oxo-2-pteridinyl]amino]-3-methoxy-benzamide]
T/C (ratio of median tumor volume of treated vs. control tumors) (Example 1, Volasertib alone 10 mg/kg once weekly i.v.): 79%
T/C (ratio of median tumor volume of treated vs. control tumors) (Example 2, Volasertib alone 20 mg/kg once weekly i.v.): 39%
